What was measured:
Type in all cases: binding
Parameters in all cases: KINOMEscan: ABL1(F317L)-phosphorylated / KINOMEscan: ABL1(H396P)-nonphosphorylated / KINOMEscan: ABL1(H396P)-phosphorylated / KINOMEscan: ABL1(M351T)-phosphorylated / KINOMEscan: ABL1(T315I)-phosphorylated / KINOMEscan: ABL1-nonphosphorylated / KINOMEscan: ABL1-phosphorylated / KINOMEscan: ACVR2A / KINOMEscan: ACVR2B / KINOMEscan: ADCK3 / KINOMEscan: ADCK4 / KINOMEscan: AKT1 / KINOMEscan: AKT3 / KINOMEscan: ALK / KINOMEscan: ARK5 / KINOMEscan: AURKA / KINOMEscan: AURKC / KINOMEscan: BIKE / KINOMEscan: BMPR1A / KINOMEscan: BMPR1B / KINOMEscan: BMX / KINOMEscan: BRK / KINOMEscan: BRSK1 / KINOMEscan: BRSK2 / KINOMEscan: CAMK1 / KINOMEscan: CAMK1D / KINOMEscan: CAMK1G / KINOMEscan: CAMK2A / KINOMEscan: CAMK2B / KINOMEscan: AAK1 / KINOMEscan: CAMK2D / KINOMEscan: CAMK2G / KINOMEscan: ABL1(F317I)-nonphosphorylated / KINOMEscan: ABL1(F317I)-phosphorylated / KINOMEscan: ABL1(F317L)-nonphosphorylated: unit: % Ctrl
Settings in all cases: Compound Concentration 10 µM
panel of 442 kinases [1] = target: T1, panel of 442 kinases (Homo sapiens, UniProt Q04759)
T1 construct: purchased KINOMEscan
T1 sequence (Q04759 whole entry): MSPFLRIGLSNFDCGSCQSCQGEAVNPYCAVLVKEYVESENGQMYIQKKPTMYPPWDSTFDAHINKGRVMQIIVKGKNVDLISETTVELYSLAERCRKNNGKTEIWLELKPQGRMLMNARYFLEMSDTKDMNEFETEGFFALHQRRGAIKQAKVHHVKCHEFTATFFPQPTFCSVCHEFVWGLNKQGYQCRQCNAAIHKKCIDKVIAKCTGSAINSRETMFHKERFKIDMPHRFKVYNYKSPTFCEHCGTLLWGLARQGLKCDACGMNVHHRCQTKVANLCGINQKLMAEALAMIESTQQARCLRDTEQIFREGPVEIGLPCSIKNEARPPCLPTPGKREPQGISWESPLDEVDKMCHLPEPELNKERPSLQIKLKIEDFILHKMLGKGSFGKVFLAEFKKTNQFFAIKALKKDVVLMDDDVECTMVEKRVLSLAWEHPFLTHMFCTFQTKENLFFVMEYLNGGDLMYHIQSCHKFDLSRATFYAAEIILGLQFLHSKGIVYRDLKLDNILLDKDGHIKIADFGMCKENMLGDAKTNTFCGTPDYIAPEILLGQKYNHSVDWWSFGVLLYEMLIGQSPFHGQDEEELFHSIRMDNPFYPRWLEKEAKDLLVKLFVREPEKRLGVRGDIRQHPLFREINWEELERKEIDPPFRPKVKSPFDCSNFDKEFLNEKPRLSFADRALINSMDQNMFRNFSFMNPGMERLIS
Excerpt: (§1) We assessed the selectivity of members of this scaffold using the KINOMEscan methodology across a near comprehensive panel of 442 kinases [[18,27]].

panel of 442 kinases [2] = target: T2, panel of 442 kinases (Homo sapiens, UniProt Q9UQB9)
T2 construct: purchased KINOMEscan
T2 sequence (Q9UQB9 1-309): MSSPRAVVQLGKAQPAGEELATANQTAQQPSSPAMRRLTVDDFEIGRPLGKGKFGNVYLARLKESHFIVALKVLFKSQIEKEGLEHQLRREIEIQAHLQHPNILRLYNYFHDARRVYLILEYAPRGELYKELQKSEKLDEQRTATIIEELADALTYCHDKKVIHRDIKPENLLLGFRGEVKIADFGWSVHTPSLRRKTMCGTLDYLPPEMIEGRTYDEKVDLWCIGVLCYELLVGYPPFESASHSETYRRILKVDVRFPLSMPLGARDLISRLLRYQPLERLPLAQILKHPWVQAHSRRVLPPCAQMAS
Excerpt: as §1

panel of 442 kinases [3] = target: T3, panel of 442 kinases (Homo sapiens, UniProt P51817)
T3 construct: purchased KINOMEscan
T3 sequence (P51817 1-358): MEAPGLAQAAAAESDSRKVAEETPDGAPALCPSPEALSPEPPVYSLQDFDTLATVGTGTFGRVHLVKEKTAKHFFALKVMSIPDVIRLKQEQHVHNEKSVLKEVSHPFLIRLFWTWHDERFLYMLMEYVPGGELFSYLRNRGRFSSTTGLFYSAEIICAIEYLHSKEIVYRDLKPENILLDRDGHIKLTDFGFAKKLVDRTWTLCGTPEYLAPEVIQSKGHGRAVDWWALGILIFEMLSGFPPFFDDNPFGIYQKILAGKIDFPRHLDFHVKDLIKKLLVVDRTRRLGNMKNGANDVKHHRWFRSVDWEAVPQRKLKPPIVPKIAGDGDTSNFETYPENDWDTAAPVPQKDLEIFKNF
Excerpt: as §1

| SMILES | KINOMEscan: PRKCQ (panel of 442 kinases [1]) | KINOMEscan: AURKC (panel of 442 kinases [2]) | KINOMEscan: PRKX (panel of 442 kinases [3]) |
| --- | --- | --- | --- |
| COc1cc(C(=O)N2CCC(N3CCN(C)CC3)CC2)ccc1Nc1ncc2c(n1)N(C)c1ccccc1C(=O)N2C [15 (LRRK2-IN-1)] | 100 | 50 | 99 |
| CCOc1cc(C(=O)N2CCC(N3CCN(C)CC3)CC2)ccc1Nc1ncc2c(n1)N(C1CCCC1)c1ccccc1C(=O)N2C [Compound 26] | 100 | 66 | 100 |
| COc1cc(C(=O)N2CCC(N3CCN(C)CC3)CC2)ccc1Nc1ncc2c(n1)N1CCc3cccc(c31)C(=O)N2C [Compound 24] | – | 50 | 87 |
| COc1cc(C(=O)N2CCC(N3CCN(C)CC3)CC2)ccc1Nc1ncc2c(n1)N(C1CCCC1)c1ccccc1C(=O)N2C [Compound 25, 11-cyclopentyl-2-((2-methoxy-4-(4-(4-methylpiperazin-1-yl)piperidine-1-carbonyl)phenyl)amino)-5-methyl-5H-benzo[e]pyrimido[5,4-b][1,4]diazepin-6(11H)-one] | 100 | 38 | 100 |
